We go through ten compounds from patent EP4623702A1, “ORAL PRODUCT” (Nicoventures Trading Limited, priority 2024, dated 2025).

Series [1] deals with T1, MDCK-MDR1 cell line heterologously expressing the human P-gp transporter (MDR1) (Homo sapiens, UniProt P08183). As to conditions: for effect of quercetin on BBB permeability of the compound: MDCK-MDR1.
Series [2] has as its target P-gp (MDR1, ABCB1), human (Homo sapiens, UniProt P08183). The experiment in a line: in vitro. The following applies: dog, MDCK-MDR1, pH 7.4.
The target of series [3] is T1, MDCK-MDR1 cell line heterologously expressing the human P-gp transporter (MDR1). The series can be described thus: in vitro. As to conditions: dog, MDCK-MDR1, pH 7.4.
For series [4] the target is unchanged. The series can be described thus: MDCK-MDR1 permeability assay (in vitro model for BBB permeation, P-gp substrate identification, with/without inhibitors). The following applies: Compound Alone; apical to basolateral; 1 or 10 µM, 60 minutes, pH 7.4 (Table 2).
The next series addresses p-glycoprotein (Homo sapiens, UniProt P08183). The following applies: value stated as basis for the 30 µM inhibitor concentration; no source given; cited from earlier work.

pEC50: −log10 of the molar value. Read-outs that look alike come from different tables or passages of the source.

T1 sequence (P08183 whole entry): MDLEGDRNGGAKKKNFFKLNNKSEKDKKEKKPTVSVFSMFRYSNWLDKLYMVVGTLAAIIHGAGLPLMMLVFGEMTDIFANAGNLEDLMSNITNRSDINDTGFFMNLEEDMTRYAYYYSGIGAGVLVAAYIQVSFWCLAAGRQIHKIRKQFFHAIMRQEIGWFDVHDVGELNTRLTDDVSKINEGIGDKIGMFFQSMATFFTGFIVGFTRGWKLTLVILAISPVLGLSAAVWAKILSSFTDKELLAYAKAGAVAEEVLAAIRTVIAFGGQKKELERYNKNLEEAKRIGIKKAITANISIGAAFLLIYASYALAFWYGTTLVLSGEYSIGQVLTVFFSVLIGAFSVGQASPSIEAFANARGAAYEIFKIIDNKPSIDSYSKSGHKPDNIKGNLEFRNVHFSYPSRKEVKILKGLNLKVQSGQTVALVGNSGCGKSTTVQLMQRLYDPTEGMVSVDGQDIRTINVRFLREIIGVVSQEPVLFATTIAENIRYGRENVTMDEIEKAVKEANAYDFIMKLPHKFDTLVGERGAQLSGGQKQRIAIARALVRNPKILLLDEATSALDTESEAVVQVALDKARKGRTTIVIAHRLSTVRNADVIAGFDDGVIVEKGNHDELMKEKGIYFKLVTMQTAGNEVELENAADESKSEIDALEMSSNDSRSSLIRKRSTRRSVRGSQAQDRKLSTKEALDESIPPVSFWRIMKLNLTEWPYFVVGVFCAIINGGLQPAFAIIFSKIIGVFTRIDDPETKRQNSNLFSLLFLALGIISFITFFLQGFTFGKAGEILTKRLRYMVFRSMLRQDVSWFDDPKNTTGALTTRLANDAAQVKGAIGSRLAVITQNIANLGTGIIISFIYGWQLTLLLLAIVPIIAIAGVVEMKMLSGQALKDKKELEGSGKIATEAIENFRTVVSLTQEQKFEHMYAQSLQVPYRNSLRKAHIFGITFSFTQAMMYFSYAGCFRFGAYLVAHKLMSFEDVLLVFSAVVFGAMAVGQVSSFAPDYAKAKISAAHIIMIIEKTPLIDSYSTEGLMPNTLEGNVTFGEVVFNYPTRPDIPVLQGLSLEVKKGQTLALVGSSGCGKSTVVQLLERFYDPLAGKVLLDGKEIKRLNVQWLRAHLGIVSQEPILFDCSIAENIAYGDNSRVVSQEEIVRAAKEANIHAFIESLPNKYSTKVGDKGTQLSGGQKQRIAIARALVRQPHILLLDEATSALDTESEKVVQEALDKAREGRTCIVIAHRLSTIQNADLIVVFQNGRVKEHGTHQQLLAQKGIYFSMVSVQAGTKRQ
P-gp (MDR1, ABCB1), human, sequence (P08183 whole entry): as above
p-glycoprotein, sequence (P08183 whole entry): as above

One may read the Papp A→B as the apparent permeability from the apical to the basolateral side of a cell layer. The Papp B→A is the apparent permeability from the basolateral to the apical side of a cell layer. The Papp is the rate of passage across a membrane or cell layer, normalised by area and donor concentration. Take `O=c1cc(-c2ccc(O)cc2)oc2cc(O)cc(O)c12` [Apigenin]: the “A2B Apparent permeability (Papp)” value in series [1] (dog, MDCK-MDR1, 60 min, pH 7.4) worked out at 9.71 ×10⁻⁶ cm/s. In series [2], this compound gave a Papp A→B at 60 min of 9.71 ×10⁻⁶ cm/s, a Papp B→A at 60 min of 19.1 ×10⁻⁶ cm/s and a Papp at 60 min of 1 to 10 ×10⁻⁶ cm/s.
`CC(/C=C/C=C(\C)C(=O)O)=C\C=C\C=C(C)\C=C\C=C(/C)C(=O)O` [Crocetin]: the “A2B Apparent permeability (Papp)” value in series [1] (dog, MDCK-MDR1, 60 min, pH 7.4) came out at 1.67 ×10⁻⁶ cm/s. In series [2], this compound yielded a Papp A→B at 60 min of 1.67 ×10⁻⁶ cm/s, a Papp B→A at 60 min of 5.84 ×10⁻⁶ cm/s and a Papp at 60 min of 1 to 10 ×10⁻⁶ cm/s.
Take `CC(/C=C/C=C(\C)C(=O)O[C@@H]1O[C@H](CO[C@@H]2O[C@H](CO)[C@@H](O)[C@H](O)[C@H]2O)[C@@H](O)[C@H](O)[C@H]1O)=C\C=C\C=C(C)\C=C\C=C(/C)C(=O)O[C@@H]1O[C@H](CO[C@@H]2O[C@H](CO)[C@@H](O)[C@H](O)[C@H]2O)[C@@H](O)[C@H](O)[C@H]1O` [Crocin]: the “A2B Apparent permeability (Papp)” value in series [1] (dog, MDCK-MDR1, 60 min, pH 7.4) worked out at 0.22 ×10⁻⁶ cm/s. For the same compound, in series [2], the apparent permeability from apical to basolateral (Papp A→B) at 60 min was 0.22 ×10⁻⁶ cm/s, the Papp B→A at 60 min turned out to be 3.12 ×10⁻⁶ cm/s and the Papp at 60 min was less than 1 ×10⁻⁶ cm/s.
On to `O=C(O)[C@H]1O[C@@H](Oc2cc(O)c3c(=O)cc(-c4ccc(O)c(O)c4)oc3c2)[C@H](O)[C@@H](O)[C@@H]1O` [Luteolin-7-glucoronide, Luteolin 7-glucuronide], for which, in series [1] (MDCK-MDR1, pH 7.4), the “A2B Apparent permeability (Papp)” value amounted to 0.175 ×10⁻⁶ cm/s and the “B2A Apparent permeability (Papp)” value is 0.134 ×10⁻⁶ cm/s. Moreover, in series [3], the Papp A→B at 1 h was determined as 0.205 ×10⁻⁶ cm/s and the basolateral-to-apical permeability (Papp B→A) at 1 h came out at 0.076 ×10⁻⁶ cm/s.
`CC1(C)CC[C@]2(C(=O)O)CC[C@]3(C)C(=CC[C@@H]4[C@@]5(C)CC[C@H](O)C(C)(C)[C@@H]5CC[C@]43C)[C@@H]2C1` [Oleanoic acid, Oleanolic acid]: the “A2B Apparent permeability (Papp)” value in series [4] is 0.174 ×10⁻⁶ cm/s. Besides, in series [2], the Papp A→B at 60 min is 0.174 ×10⁻⁶ cm/s, the Papp B→A at 60 min was determined as 0.35 ×10⁻⁶ cm/s and the apparent permeability coefficient (Papp) at 60 min is less than 1 ×10⁻⁶ cm/s.
Broadly, the pEC50 is the negative decadic logarithm of the EC50, by convention in mol/L. Regarding `O=C(/C=C/C=C/c1ccc2c(c1)OCO2)N1CCCCC1` [Piperine, (2E,4E)-5-(2H-1,3-benzodioxol-5-yl)-1-(piperidin-1-yl)-penta-2,4-dien-1-one], the pEC50 at p-glycoprotein is 4.52.
On to `CC1=C(C=O)C(C)(C)CC=C1` [Safranal], for which, in series [3], the Papp A→B at 1 h stood at 90 ×10⁻⁶ cm/s and the Papp B→A at 1 h was 43.3 ×10⁻⁶ cm/s.
As to `CC1=C(C)C(=O)O[C@@H]([C@](C)(O)[C@H]2CC[C@H]3[C@@H]4[C@@H]5O[C@@H]5[C@@]5(O)CC=CC(=O)[C@]5(C)[C@H]4CC[C@]23C)C1` [Withanolide A], the “effect of quercetin on BBB permeability of the compound” value in series [1] is given as “did not, for instance, significantly enhance”. For the same compound, in series [1] (MDCK-MDR1, pH 7.4), the “A2B Apparent permeability (Papp)” value was 17.3 ×10⁻⁶ cm/s and the “B2A Apparent permeability (Papp)” value came out at 20 ×10⁻⁶ cm/s. In series [3], this compound displayed a Papp A→B at 1 h of 3.65 ×10⁻⁶ cm/s and a Papp B→A at 1 h of 22.2 ×10⁻⁶ cm/s.
For the compound `CC1=C(C)C(=O)O[C@@H]([C@@H](C)[C@H]2CC[C@H]3[C@@H]4[C@@H]5O[C@@H]5[C@@]5(O)CC=CC(=O)[C@]5(C)[C@H]4CC[C@]23C)C1` [Withanolide B], in series [1] (MDCK-MDR1, pH 7.4), the “A2B Apparent permeability (Papp)” value was 13.5 ×10⁻⁶ cm/s and the “B2A Apparent permeability (Papp)” value came out at 11.6 ×10⁻⁶ cm/s. Moreover, in series [3], the Papp A→B at 1 h was 12 ×10⁻⁶ cm/s and the Papp B→A at 1 h stood at 13.3 ×10⁻⁶ cm/s.
As for `CC1=C(C)C(=O)O[C@@H]([C@@H](C)[C@@]2(O)CC[C@H]3[C@@H]4[C@@H]5O[C@@H]5[C@@]5(O)CC=CC(=O)[C@]5(C)[C@H]4CC[C@@]32C)C1` [Withanone], the “effect of quercetin on BBB permeability of the compound” value in series [1] is “did not, for instance, significantly enhance”. Moreover, the “B2A Apparent permeability (Papp)” value in series [1] (dog, MDCK-MDR1, pH 7.4) stood at 19.7 ×10⁻⁶ cm/s. Also, in series [2], the Papp A→B is 1.23 ×10⁻⁶ cm/s and the Papp B→A came out at 31.6 ×10⁻⁶ cm/s.
